Data on 20 compounds can be found in patent US20250059182A1, “SOS1 INHIBITORS” (Mirati Therapeutics, Inc., priority 2021, published 2025).

Assay [1] deals with T1, recombinant human SOS1 polypeptide (amino acids 560-1049) (Homo sapiens, UniProt Q07889).
T1 construct: corresponding to amino acids 560-1049, expressed in E. Coli; made in house; host or cells: E. coli
T1 sequence (Q07889 560-1049): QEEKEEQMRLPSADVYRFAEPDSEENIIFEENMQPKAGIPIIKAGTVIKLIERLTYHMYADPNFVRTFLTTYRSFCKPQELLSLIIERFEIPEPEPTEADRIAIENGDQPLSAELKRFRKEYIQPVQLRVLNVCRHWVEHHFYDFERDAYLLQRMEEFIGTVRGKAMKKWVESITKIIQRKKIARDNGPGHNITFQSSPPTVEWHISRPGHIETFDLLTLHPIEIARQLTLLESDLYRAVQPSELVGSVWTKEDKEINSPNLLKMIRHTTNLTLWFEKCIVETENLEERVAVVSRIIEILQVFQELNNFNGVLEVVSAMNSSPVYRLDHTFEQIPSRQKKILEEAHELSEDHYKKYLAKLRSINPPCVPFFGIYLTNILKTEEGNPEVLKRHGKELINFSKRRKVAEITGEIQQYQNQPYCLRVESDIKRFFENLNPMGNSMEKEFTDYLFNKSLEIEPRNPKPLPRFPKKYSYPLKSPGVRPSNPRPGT
The assay can be described thus: HTRF displacement assay: inhibition of labeled tracer binding to SOS1. (In TR-FRET formats the signal depends on donor and acceptor labels being close together.)

Assay [2] concerns pERK in MKN1 cells. The assay can be described thus: pERK inhibition, In-Cell Western (LI-COR Odyssey), MKN1 cells. The assay is classed as cell-based. A digest of the protocol: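 IC50 was fitted from % pERK inhibition, calculated as the GAPDH-normalised pERK signal of each well divided by the vehicle mean. Signal was imaged at 700 and 800 nm after fixation, methanol permeabilisation and dual antibody staining. Before fixation, MKN1 cells had received compound for about 0.5–1 h at 37 °C, top concentration 10 µM, nine 3-fold dilutions.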

Setting [3] is: Table A, Morrison equation for competitive binding.
Where [4] appears, read: Homo sapiens, MKN-1, Table B, MKN1 or H358 cells (table does not say which), 0.5-1 hour incubation, read-out: IC50 (nM), pERK inhibition.
Where [5] appears, read: Table B, MKN1 or H358 cells (table does not say which), 0.5-1 hour incubation, read-out: IC50 (nM), pERK inhibition.
Where [6] appears, read: Table A1, Morrison equation for competitive binding.
[7] abbreviates: Homo sapiens, MKN-1, Table B1, MKN1 or H358 cells (table does not say which), 0.5-1 hour incubation, read-out: IC50 (nM), pERK inhibition.

Counter-ions that a name gives are not always drawn. Like-named read-outs stand apart in the source and are kept apart here.

Consider `Cc1c(C#N)cccc1[C@@H](C)Nc1nnc(C)c2cnc(N3CCN(C(=O)[C@H]4CCN(C)C4)CC3)cc12` [Example 2-6, 2-methyl-3-((R)-1-((4-methyl-7-(4-((S)-1-methylpyrrolidine-3-carbonyl)piperazin-1-yl)pyrido[3,4-d]pyridazin-1-yl)amino)ethyl)benzonitrile], for which the Ki (commonly a dissociation constant, usually derived from enzyme kinetics or from competition with a known ligand) in assay [1] (setting [3]) worked out at 0.481 nM. Further, the IC50 (usually the concentration at which inhibition is half-maximal) in assay [2] (setting [4]) worked out at 869 nM.
The corresponding values for `Cc1c(C#N)cccc1[C@@H](C)Nc1nnc(C)c2cnc(N3C[C@@H]4CCCN(C)[C@@H]4C3)cc12` (single isomer, unassigned) [Example 6-6] are 1.36 nM and 80.6 nM.
As for `Cc1c(C#N)cccc1[C@@H](C)Nc1nnc(C)c2cnc(N3CCN(C(C)C)CC3)cc12` [Example 1-70, (R)-3-(1-((7-(4-isopropylpiperazin-1-yl)-4-methylpyrido[3,4-d]pyridazin-1-yl)amino)ethyl)-2-methylbenzonitrile], the Ki in assay [1] (setting [3]) came out at 0.927 nM. In assay [2] (setting [4]), the IC50 is 44.2 nM.
Turning to `Cc1c(C#N)cccc1[C@@H](C)Nc1nnc(C)c2cnc(N3C[C@H]4[C@@H]3CCN4C)cc12` (single isomer, unassigned) [Example 6-12], the Ki in assay [1] (setting [3]) is 0.24 nM. Also, in assay [2] (setting [5]), the IC50 stood at 13.7 nM.
Take `Cc1c(C#N)cccc1[C@@H](C)Nc1nnc(C)c2cnc(N3CC(C)(N4CCC4)C3)cc12` [Example 1-1, (R)-2-methyl-3-(1-((4-methyl-7-(3′-methyl-[1,3′-biazetidin]-1′-yl)pyrido[3,4-d]pyridazin-1-yl)amino)ethyl)benzonitrile]: the inhibition constant Ki in assay [1] (setting [3]) is 1.59 nM. Also, the IC50 in assay [2] (setting [4]) worked out at 104 nM.
In the case of `CCN(c1cc2c(N[C@H](C)c3cccc(C#N)c3C)nnc(C)c2cn1)[C@@H]1CCN(C)C1` [Example 1-103, 3-((R)-1-((7-(ethyl((R)-1-methylpyrrolidin-3-yl)amino)-4-methylpyrido[3,4-d]pyridazin-1-yl)amino)ethyl)-2-methylbenzonitrile], the Ki in assay [1] (setting [3]) is 1.1 nM. Also, the IC50 in assay [2] (setting [4]) turned out to be 48.4 nM.
As to `CCN1CC2(C1)CN(c1cc3c(N[C@H](C)c4cccc(C(F)(F)F)c4F)nnc(C)c3cn1)C2` [Example 1-27, (R)-7-(6-ethyl-2,6-diazaspiro[3.3]heptan-2-yl)-N-(1-(2-fluoro-3-(trifluoromethyl)phenyl)ethyl)-4-methylpyrido[3,4-d]pyridazin-1-amine], the Ki in assay [1] (setting [3]) was 0.27 nM. Moreover, the IC50 in assay [2] (setting [4]) was 18.6 nM.
Consider `Cc1c(C#N)cccc1[C@@H](C)Nc1nnc(C)c2cnc(N3CCN(C(=O)[C@@H]4CCCN4)CC3)cc12` [Example 2-4, 3-((R)-1-((7-(4-(L-prolyl)piperazin-1-yl)-4-methylpyrido[3,4-d]pyridazin-1-yl)amino)ethyl)-2-methylbenzonitrile], for which the Ki in assay [1] (setting [3]) is 0.816 nM. Further, the IC50 in assay [2] (setting [4]) stood at 933 nM.
Take `COC1(c2cc3c(N[C@H](C)c4cccc(C#N)c4C)nnc(C)c3cn2)CCN(C(C)=O)CC1` [Example P-75, (R)-3-(1-((7-(1-acetyl-4-methoxypiperidin-4-yl)-4-methylpyrido[3,4-d]pyridazin-1-yl)amino)ethyl)-2-methylbenzonitrile]: the inhibition constant Ki in assay [1] (setting [6]) is 17.6 nM. The 50% inhibitory concentration (IC50) in assay [2] (setting [7]) worked out at 568 nM.
On to `Cc1c(C#N)cccc1[C@@H](C)Nc1nnc(C)c2cnc(N3CCC34CN(C)C4)cc12` [Example 1-19, (R)-2-methyl-3-(1-((4-methyl-7-(6-methyl-1,6-diazaspiro[3.3]heptan-1-yl)pyrido[3,4-d]pyridazin-1-yl)amino)ethyl)benzonitrile], for which the Ki in assay [1] (setting [3]) was 0.601 nM. Also, the 50% inhibitory concentration (IC50) in assay [2] (setting [4]) was 32.2 nM.
Regarding `Cc1c(C#N)cccc1[C@@H](C)Nc1nnc(C)c2cnc(C3CCN(C)CC3)cc12` [Example 6-14, (R)-2-methyl-3-(1-((4-methyl-7-(1-methylpiperidin-4-yl)pyrido[3,4-d]pyridazin-1-yl)amino)ethyl)benzonitrile], the Ki in assay [1] (setting [3]) was found to be 8.89 nM. In assay [2] (setting [4]), the IC50 worked out at 468 nM.
Take `Cc1c(C#N)cccc1[C@@H](C)Nc1nnc(C)c2cnc(N3CCN(CCCF)CC3)cc12` [Example P-229, (R)-3-(1-((7-(4-(3-fluoropropyl)piperazin-1-yl)-4-methylpyrido[3,4-d]pyridazin-1-yl)amino)ethyl)-2-methylbenzonitrile]: the Ki in assay [1] (setting [6]) came to 0.671 nM. Besides, the IC50 in assay [2] (setting [7]) is 59.3 nM.
As to `Cc1c(C#N)cccc1[C@@H](C)Nc1nnc(C)c2cc(F)c(N3C[C@@H]4C[C@H]3CN4C)cc12` [Example 4-21, 3-((R)-1-((6-fluoro-4-methyl-7-((1S,4S)-5-methyl-2,5-diazabicyclo[2.2.1]heptan-2-yl)phthalazin-1-yl)amino)ethyl)-2-methylbenzonitrile], the Ki in assay [1] (setting [3]) stood at 2 nM. Moreover, the IC50 in assay [2] (setting [5]) came to 16 nM.
Consider `Cc1c([C@@H](C)Nc2nnc(C)c3cnc(N4CC5(COC5)C4)cc23)cc(N)nc1C(F)(F)F` [Example 1-107, (R)-N-(1-(6-amino-3-methyl-2-(trifluoromethyl)pyridin-4-yl)ethyl)-4-methyl-7-(2-oxa-6-azaspiro[3.3]heptan-6-yl)pyrido[3,4-d]pyridazin-1-amine], for which the Ki in assay [1] (setting [3]) stood at 22.5 nM. In assay [2] (setting [4]), the IC50 was 239 nM.
The corresponding values for `Cc1c(C#N)cccc1[C@@H](C)Nc1nnc(C)c2cnc(N(C)C[C@@H]3CCCN3)cc12` [Example 1-55, 2-methyl-3-((R)-1-((4-methyl-7-(methyl(((S)-pyrrolidin-2-yl)methyl)amino)pyrido[3,4-d]pyridazin-1-yl)amino)ethyl)benzonitrile] are 2.18 nM and 290 nM.
On to `COC1CCN(c2cc3c(N[C@H](C)c4cccc(C#N)c4C)nnc(C)c3cn2)CC1` [Example P-15, (R)-3-(1-((7-(4-methoxypiperidin-1-yl)-4-methylpyrido[3,4-d]pyridazin-1-yl)amino)ethyl)-2-methylbenzonitrile], for which the inhibition constant Ki in assay [1] (setting [6]) is 1.12 nM. Further, the concentration for half-maximal inhibition (IC50) in assay [2] (setting [7]) worked out at 66.1 nM.
In the case of `Cc1nnc(N[C@H](C)c2cccc(C(C)(F)F)c2F)c2cc(N3CCN4CCOC[C@@H]4C3)ncc12` [Example P-171, N-((R)-1-(3-(1,1-difluoroethyl)-2-fluorophenyl)ethyl)-7-((S)-hexahydropyrazino[2,1-c][1,4]oxazin-8(1H)-yl)-4-methylpyrido[3,4-d]pyridazin-1-amine], the Ki in assay [1] (setting [6]) was 0.425 nM. In addition, the concentration for half-maximal inhibition (IC50) in assay [2] (setting [7]) turned out to be 28.5 nM.
On to `Cc1nnc(N[C@H](C)c2cccc(C(F)(F)F)c2F)c2cc(N3CC[C@@H](N(C)C)C3)ncc12` [Example 1-86, 7-((R)-3-(dimethylamino)pyrrolidin-1-yl)-N-((R)-1-(2-fluoro-3-(trifluoromethyl)phenyl)ethyl)-4-methylpyrido[3,4-d]pyridazin-1-amine], for which the Ki in assay [1] (setting [3]) amounted to 0.372 nM. Besides, the IC50 in assay [2] (setting [4]) was 50.8 nM.
On to `Cc1nnc(N[C@H](C)c2cccc(C(F)F)c2F)c2cc(N3CCC34CN(CCCF)C4)ncc12` [Example P-226, (R)-N-(1-(3-(difluoromethyl)-2-fluorophenyl)ethyl)-7-(6-(3-fluoropropyl)-1,6-diazaspiro[3.3]heptan-1-yl)-4-methylpyrido[3,4-d]pyridazin-1-amine formic acid salt], for which the inhibition constant (Ki) in assay [1] (setting [6]) stood at 0.288 nM. In addition, in assay [2] (Homo sapiens, MKN-1, read-out: IC50 (nM), pERK inhibition), the 50% inhibitory concentration (IC50) was determined as 62.3 nM.
In the case of `Cc1c(C#N)cccc1[C@@H](C)Nc1nnc(C)c2cnc(N(C)[C@@H]3CCCNC3)cc12` [Example 1-54, 2-methyl-3-((R)-1-((4-methyl-7-(methyl((R)-piperidin-3-yl)amino)pyrido[3,4-d]pyridazin-1-yl)amino)ethyl)benzonitrile], the inhibition constant Ki in assay [1] (setting [3]) was determined as 1.2 nM. For the same compound, the IC50 in assay [2] (setting [4]) came out at 142 nM.
